The results in this text go back to EP4501942A1, “PEPTIDOMIMETICS WITH ANTIVIRAL ACTIVITY” (priority 2023, dated 2025).

Where two headings read alike, the source gives them in different places.

As usually defined, the EC50 is the concentration giving half of the maximal effect. Broadly, the EC90 is the point of the concentration-response curve where the effect stands at 90%. As usually defined, the IC50 is the concentration needed to halve the response being measured. For orientation: inhibition means the percentage by which the read-out fell short of the control.

Data set [1] can be described thus: in vitro. To be noted: human.
Data set [2] concerns GFP-expressing recombinant vesicular stomatitis virus (VSV-GFP). The data set can be described thus: microbe, parasite or virus in culture. It counts as cell-based. To be noted: A549-ACE2, 16 h.
Data set [3] in a line: in vitro.
Another data set addresses SARS-CoV-2 M^pro protein (Severe acute respiratory syndrome coronavirus 2, UniProt P0DTD1). The data set can be described thus: biochemical. To be noted: for IC50: isolated SARS-CoV-2 M^pro, three separate experiments in duplicate, read-out: IC50, mean±SD; for inhibition at 10 µM: read-out: % of inhibition at 10 µM.
Data set [4] can be described thus: Cytotoxicity MTT assay in uninfected A549-ACE2 cells. The class given is cell-based. To be noted: human. The procedure: To evaluate the cytotoxicity profile of the compounds MTT assays were performed in A549-ACE2 cells. Uninfected cells were incubated with a range of compound concentrations (from 100 to 1 µM) for forty-eight hours, time at which the MTT substrate [3-(4,5-dimethylthiazol-2-yl)-2,5-diphenyltetrazolium bromide] was added and the formation of formazan precipitates was evaluated two hours later, using a colorimetric readout. Vehicle-treated (DMSO) cells were used as reference (100 %).
(Tetrazolium assays rely on reduction of a dye to a coloured formazan, in cell work by metabolically active cells.)

Another data set relates to SARS-CoV-2. The data set can be described thus: microbe, parasite or virus in culture. The class given is cell-based. To be noted: Severe acute respiratory syndrome coronavirus 2, SARS-CoV-2, A549-ACE2 cells, MOI 0.005, 48 h; for EC50: read-out: EC50; for EC90: read-out: EC90.

Compound `Cc1c(-c2ccc(-c3ccccc3F)cc2)nc2ccc(F)cc2c1C(=O)O` [Brequinar, reference compound] had a CC50 in “in vitro [1]” above 50 µM. For the same compound, in data set [2], the EC50 is below 0.6 µM and the EC90 is below 0.6 µM.

Take `CC(C)[C@H](NC(=O)OC(C)(C)C)C(=O)N1C[C@@H](C)[C@@]1(Cc1ccccc1)C(=O)N[C@H](C#N)C[C@@H]1CCNC1=O` [Example 6]: the CC50 in the data set “in vitro [1]” and in “in vitro [3]” was above 50 µM each time. Also, the EC50 is above 50 µM in data set [2] and 1 µM in the data set with SARS-CoV-2. Also, the EC90 is above 50 µM in data set [2] and 3 µM in the data set with SARS-CoV-2. The half-maximal inhibitory concentration (IC50) at SARS-CoV-2 M^pro protein was 0.07 ± 0.01 µM. Further, in data set [4], the CC50 at 48 h was above 100 µM.

On to `C[C@@H]1CN(C(=O)[C@@H](NC(=O)OC(C)(C)C)C(C)(C)C)[C@]1(Cc1ccccc1)C(=O)N[C@H](C#N)C[C@@H]1CCNC1=O` [Example 14], for which the CC50 in the data set “in vitro [1]” and in the data set “in vitro [3]” was above 50 µM in each case. The EC50 in data set [2] was above 50 µM; in the data set on SARS-CoV-2 it was 1 µM. The EC90 was above 50 µM in data set [2] and 3 µM in the data set with SARS-CoV-2. For the same compound, the 50% inhibitory concentration (IC50) on SARS-CoV-2 M^pro protein stood at 0.3 ± 0.03 µM. In addition, the CC50 at 48 h in data set [4] is above 100 µM.

With `CCCC[C@@H](C#N)NC(=O)[C@]1(CC(C)C)[C@H](C)CN1C(=O)[C@@H](NC(=O)NC(C)(C)C)C(C)(C)C` [Example 25, ^tBuNHCO-L-Tbg-(αS,β'R)-Azl-NH-[(1S)-1-cyano]pentane], the CC50 in the data set “in vitro [1]” and in “in vitro [3]” was above 50 µM each time. In addition, the half-maximal effective concentration (EC50) in data set [2] was above 50 µM. In data set [2], the EC90 was above 50 µM. Further, the inhibition at 10 µM at SARS-CoV-2 M^pro protein stood at 0%.

In “in vitro [1]”, `CC(C)C[C@@]1(C(=O)N[C@H](C=O)C[C@@H]2CCNC2=O)[C@H](C)CN1C(=O)[C@@H](NC(=O)OCc1ccccc1)C(C)C` [Example 27, Z-L-Val-(αS,β'R)-Azl-L-Ala(3S-2-oxopyrrolidin-3-yl)-H] displayed a CC50 above 50 µM. In data set [2], the half-maximal effective concentration (EC50) is above 50 µM and the EC90 was above 50 µM. Moreover, the half-maximal inhibitory concentration (IC50) at SARS-CoV-2 M^pro protein was found to be 0.077 ± 0.02 µM. In data set [4], the CC50 at 48 h was above 100 µM. In the data set with SARS-CoV-2, the EC50 turned out to be 1 µM and the 90% effect concentration (EC90) was determined as 5 µM.

In the case of `C[C@@H]1CN(C(=O)[C@@H](NC(=O)OC(C)(C)C)C(C)(C)C)[C@]1(Cc1ccccc1)C(=O)N[C@H](C=O)C[C@@H]1CCNC1=O` [Example 29, Boc-L-Tbg-(αS,β'R')-Azf-L-Ala(3S-2-oxopyrrolidin-3-yl)-H], the CC50 in the data set “in vitro [1]” and in “in vitro [3]” was above 50 µM each time. Moreover, the EC50 in data set [2] was above 50 µM; in the data set with SARS-CoV-2, 1 µM. In addition, the 90% effect concentration (EC90) in data set [2] was above 50 µM; in the data set on SARS-CoV-2 it was 2 µM. The half-inhibitory concentration (IC50) on SARS-CoV-2 M^pro protein amounted to 0.027 ± 0.006 µM. For the same compound, the CC50 at 48 h in data set [4] is above 100 µM.

For `CCCC[C@@H](C#N)NC(=O)[C@]1(CC(C)C)[C@H](C)CN1C(=O)[C@@H](NC(=O)OC(C)(C)C)C(C)(C)C` [Example 34, Boc-L-Tbg-(aS,β'R)-Azl-NH-[(1S)-1-cyano]pentane], the CC50 in the data set “in vitro [3]” was above 50 µM. Further, the inhibition at 10 µM on SARS-CoV-2 M^pro protein worked out at 0%.

Turning to `CC(C)[C@H](NC(=O)OC(C)(C)C)C(=O)N1C[C@@H](C)[C@@]1(CC1CCCCC1)C(=O)N[C@H](C#N)C[C@@H]1CCNC1=O` [Example 36], the CC50 in the data set “in vitro [1]” and in the data set “in vitro [3]” was above 50 µM throughout. In addition, the EC50 was above 50 µM in data set [2] and 2 µM in the data set on SARS-CoV-2. Moreover, the concentration for an effect of 90% (EC90) in data set [2] is above 50 µM; with SARS-CoV-2, 4 µM. In addition, the IC50 on SARS-CoV-2 M^pro protein turned out to be 0.19 ± 0.01 µM. Further, the CC50 at 48 h in data set [4] is above 100 µM.

In turn, `CC(C)(C)[C@@H]1NC(=O)O[C@@H]2CCC[C@H]2OC/C=C/C(F)(F)c2nc3ccccc3nc2O[C@@H]2C[C@@H](C(=O)N[C@]3(C(=O)NS(=O)(=O)C4(C)CC4)C[C@H]3C(F)F)N(C2)C1=O` [Glecaprevir, reference compound] came in with a CC50 in “in vitro [3]” above 50 µM.
